Results published in patent US6601010B1 (priority 2000, dated 2003).
Counter-ions that a name gives are not always drawn. Like-named read-outs stand apart in the source and are kept apart here.

How the values were obtained:
BALB/c and C57BL/6 mice = experiment: Wall rearing of mice counted by the force plate actometer algorithm; type: in vivo, mouse; conditions: amphetamine 2.5 mg/kg, 30-min session
Description: The preferred force plate actometer of this invention provides data that, when appropriately filtered and processed, provides estimates of the number of wall rears that an animal makes. This is of importance in pharmacology and behavioral genetics studies because some drugs are known to suppress rearing, and genetic endowment influences mouse rearing behavior. It is possible to detect wall rearing because when the mouse rears on hind legs and presses its forepaws against the side of the enclosure a substantial proportion of its body weight is transferred to the wall which is suspended above the force plate. […] Data from four chambers are concurrently expressed as the smoothed Fz values, and these are processed in a stream from the beginning of the session to the end of the session. The rears are quantified according to occurrence, intensity, duration of the rear, and time between the rears.
The program was validated by comparing the results from a human observer viewing video tapes taken from 30-min sessions of force plate recording for two mice: one BALB/c and one C57BL/6 mouse, two very genetically different mice. In terms of number of rears for the BALB/c mouse the video scored and computer scored wall rears were correlated +0.842 across 30 1-min blocks of the session. […]

male Sprague-Dawley rats = experiment: Instrument-scored stereotypies induced by d-amphetamine in rats (force plate actometer); type: in vivo, rat
Experimental: The subjects were male Sprague-Dawley rats about 4 months old at the time of the treatments. Nine rats received amphetamine injections and 8 separate rats got physiological saline injections. These rats weighed about 350 g each and were obtained from Harlan Co., Indianapolis, Ind.
The apparatus was four concurrently operating force plate actometers as described previously.
Rats in the amphetamine group were injected (ip.) with d-amphetamine sulfate 3.0 mg/kg 15 min before being placed in the chambers for 30 min of recording. Amphetamine injections were administered on three separate occasions spaced 2 weeks apart for each amphetamine group rat. Data from the 3rd session, when stereotypies were expected to be intense, were used for the analyses. Rats in the saline group received ip injections of physiological saline before recording sessions on three separate days. Data from the 3rd day were used for comparison with the amphetamine group.
Data were analyzed with the computer program OFFLINEP.PAS (FIGS. 18A-18C) and with additional techniques available in Systat. The program OFFLINEP.PAS identified bouts of low mobility, defined as periods of no locomotion outside of a 30 mm diameter circle for 10.24 s. Corresponding records of the force variation during the same time frame were stored so that the rhythmic components of behavior could be quantified with Fourier analysis. The basic concept was to define stereotypy as the intensity and rhythm of behavior occurring in “one place” under the influence of a stereotypy-inducing dose of amphetamine and to compare these measures to animals “staying in one place” but not under the influence of a drug.

[1] = test system: unilaterally 6-hydroxydopamine lesioned and sham rats; experiment: Rotational behavior induced by d-amphetamine in rats unilaterally lesioned with 6-hydroxydopamine (Parkinsonism model); type: in vivo, rat; conditions: d-amphetamine 3.0 mg/kg ip
Experimental: These rats met the same specifications as those used in Examples 1 and 2.
The apparatus was the force plate actometer with the cylindrical insert installed as depicted in FIG. 20. This insert presents the rat with a circular arena in which it can move. Note that neither harness nor tether was used. The rotations were calculated by the computer from the position coordinates derived from the force plate.
Rats were lesioned with the neurotoxin 6-hydroxydopamine. Surgery was performed under ketamine plus xylazine anesthesia. A Kopf stereotaxic instrument was used to guide the injection cannula to the substantia nigra pars compacta. A sham surgery group received the same surgical procedure but saline instead of toxin. About 2 weeks after surgery and at two week intervals rats received three separate injections of d-amphetamine (3.0 mg/kg, ip, 15 min prior to recording sessions). Data shown here were from one control rat and one lesioned rat for the third drug treatment. Data were analyzed with the OFFLINEP.PAS program (FIGS. 18A-18C).

[2] = test system: BALB/c, C57BL/6 and CD-1 mice; experiment: Mouse strain differences in response to daily treatment with d-amphetamine (force plate actometer); type: in vivo
Experimental: Male mice from Charles River Laboratories. BALB/c (n=32), C57BL/6 (n=32), and CD-1 (an outbred strain, n=32), were about 10 weeks old when the treatments began.
Four currently operating force plate chambers were used (the cylindrical insert was not present).
For each type of mouse, 4 dose groups were formed so that 8 mice of each strain received either saline, 1.0, 2.5 or 5.0 mg/kg d-amphetamine. On five consecutive days the mice received ip injections 1-2 min before being placed in the recording chambers for 30 min. Immediately before the drug session each mouse received a 30-min recording session preceded by a saline injection.
Data were analyzed with a version of OFFLINEP.PAS that divided the session into 9 intervals of 3 min and 24.8 s, instead of 45 frames as in the studies described in the preceding Examples. However, some graphic analyses were carried out with 45 frames. Analysis of variance was used to assess the effects of strain, dose, time within a session, and days of treatment (i.e., a 3×4×9×5 factorial design).

[3] = test system: CD-1, BALB/c and C57BL/6 mice; conditions: 2.0 g/kg ip; for locomotor stimulation during the first time block: versus saline control
Experimental: The subjects were 12 male mice of each of the three strains: CD-1, BALB/c, and C57BL/6 obtained from Charles River Laboratories.
The force plate actometer was used as described above.
The mice were subdivided into groups of 6 each. One group received saline, and the corresponding other group of that strain received a dose of 2.0 g/kg of ethanol in a 20% aqueous solution. This was the first exposure to the chamber for these mice. Within 1-2 min of the ip injection the mice were placed in the chamber and behavior was recorded for 30 min.
The distance data were divided into 6 blocks of 5 min each, and analysis of variance (3 strains×saline vs drug×6 time blocks) was used to establish the presence of effects.

male Sprague Dawley rats = experiment: Quantification of harmaline-induced tremor in rats (force plate actometer); type: in vivo, rat
Experimental: Thirty-two male Sprague Dawley rats from Harlan Co, Indianapolis, Ind., were studied.
The apparatus was the force plate actometer, described above, with no adjustments or modifications. If one were to use the instrument primarily for tremor studies, it would be possible to “tune” it for such purposes. For example, sessions of recording shorter than 30 min may be preferred and a sampling rate of 100 Hz or more may be desirable.
The rats were divided into 4 separate groups of 8 rats each. Separate groups received different doses of Harmaline hydrochloride as follows: 0.0 (saline), 4.0, 8.0, and 16.0 mg/kg, ip, 1-2 minutes before being placed in the recording chamber.
Data from the 30-min sessions were broken into 45 equal-length intervals of 40.96 s (or 2048 samples at a sampling rate of 50 Hz). […] Then, a tremor index was computed for each power spectrum. The tremor index was the difference between the average power in the 0.02-4.980 Hz frequency band and the 5.005-15.015 Hz frequency band of each power spectrum. This calculation emphasizes the peaking of the spectrum in the 5-15 Hz frequency band regardless of the absolute power level of the spectrum. A session average of the tremor index was obtained for each rat. Dose-effects statistical analyses were performed with one-way analysis of variance.

[4] = 3.0 mg/kg ip, Fourier analysis, FIG. 3

## C[C@H](N)Cc1ccccc1 [amphetamine, d-amphetamine sulfate]
BALB/c and C57BL/6 mice; BALB/c mice, untreated mean 92.5 rears
  mean number of wall rears: 3.75 rears/session
BALB/c and C57BL/6 mice; C57BL/6 mice, untreated mean 70.8 rears
  mean number of wall rears: 3.5 rears/session
Male Sprague-Dawley rats; 3.0 mg/kg ip 15 min before 30-min session, 3rd injection, FIG. 1
  number of low mobility bouts per frame versus saline control: comparable amounts of low mobility bouts
Male Sprague-Dawley rats; 3.0 mg/kg ip, 3rd injection, FIG. 2
  stereotypy score (activity during low mobility bouts) versus saline control: very active
Male Sprague-Dawley rats; 3.0 mg/kg ip, 3rd injection, n=9
  visual observation of stereotypies on removal from the chamber: all nine rats were engaged in classical nose poking, sniffing, and head-weaving stereotypies
Male Sprague-Dawley rats; 3.0 mg/kg ip, FIG. 3 versus FIG. 4, controls show no 10-Hz peak
  difference in spectral power, amphetamine rats above saline controls: 10-20 db
Male Sprague-Dawley rats; [4]
  frequency range of strong rhythmicity in power spectra of low mobility bouts: 8-11 Hz
  low frequency power in power spectra of low mobility bouts: distinctive lack of low frequency power below about 0.5 Hz
[1]; one 6-OHDA lesioned rat, FIG. 8
  rotational behavior, movement tracings: robust rotational behavior
[1]; one 6-OHDA lesioned rat, third treatment, FIG. 10
  rotations to the right in 30-min session: 62 rotations
[1]; one 6-OHDA lesioned rat, third treatment, FIG. 12
  bouts of high activity with low mobility (stereotypy score): four
[1]; one unlesioned control rat, FIG. 7
  locomotion, movement tracings: very little locomotion
[1]; one unlesioned control rat, frame 14 to end of session, FIG. 11
  stereotypy score: 250-300
[1]; one unlesioned control rat, third treatment, FIG. 9
  leftward rotations at the beginning of the session: 12 rotations
[2]; 2.5 mg/kg ip, CD-1, C57BL/6, BALB/c, FIG. 15
  distance traveled, ranking of strains: CD-1's were stimulated the most and the BALB/c's the least
[2]; BALB/c mouse, the two highest doses (2.5 and 5.0 mg/kg)
  spatial statistic, restriction of movements in space: greater tendency to restrict its movements in space
[2]; C57BL/6 mouse, 2.5 mg/kg ip
  distance traveled across the 5 treatment days: showed a sensitization effect
[2]; one C57BL/6 mouse, fifth injection of 5.0 mg/kg ip, FIG. 14 versus saline FIG. 13
  movement trajectories (locomotion): locomotor stimulating effect of the drug is apparent
[2]; three mouse strains, saline, 1.0, 2.5, 5.0 mg/kg ip, 5 days, ANOVA dose F(3,84)=73.787, p<0.001, strain-by-dose F(6,84)=9.293, p<0.001, FIG. 15
  distance traveled, effect of dose: significant effects
[2]; three mouse strains, saline, 1.0, 2.5, 5.0 mg/kg ip, ANOVA dose F(3,84)=38.192, p<0.001, strain-by-dose F(6,84)=4.991, p<0.001, FIG. 16
  spatial statistic (spatial index), effect of dose: significant effects

## CCO [ethanol]
[3]; ANOVA F(2,30)=3.257, p=0.05
  distance traveled, strain-by-ethanol interaction: significant strain-by-ethanol interaction
[3]; ANOVA F(5,150)=7.629, p<0.001
  distance traveled, time-by-ethanol interaction: significant-time-by-ethanol interaction
[3]; BALB/c strain
  locomotor stimulation during the first time block: greater amount of ethanol related locomotor stimulation
[3]; BALB/c, early in session
  proportional increase in activity, BALB/c versus other strains: greatest proportional increase in activity
[3]; CD-1 strain
  locomotor stimulation during the first time block: least stimulation
[3]; three mouse strains, 30 min in 5-min blocks, FIG. 17
  distance traveled versus saline treated mice: initially stimulated

## COc1ccc2c3c([nH]c2c1)C(C)=NCC3.Cl [harmaline, Harmaline hydrochloride]
Male Sprague Dawley rats; rats, 0, 4.0, 8.0, 16.0 mg/kg ip, session average, one-way ANOVA F (3,28)=5.090, p=0.006, FIG. 6
  effect of dose on tremor index: statistically significant
Male Sprague Dawley rats; rats, 0-16.0 mg/kg ip, F(2,28)=3.222, p=0.038
  latency to the first bout of low mobility: significantly shortened
Male Sprague Dawley rats; rats, 0-16.0 mg/kg ip, FIG. 6
  shape of the dose-effect function of the tremor index: log linear
Male Sprague Dawley rats; rats, 0-16.0 mg/kg ip, same session, F(3,28)=6.514, p=0.002
  effect on locomotor activity: dose-relatedly suppressed locomotor activity
Male Sprague Dawley rats; rats, the two higher doses (8.0 and 16.0 mg/kg ip), one rat per dose, FIG. 5
  peaking in the power spectra of Fz force: pronounced
